This assay concerns the target T1, melanocortin-1 receptor MClr (Homo sapiens, UniProt Q01726).
T1 construct: The cells used to test MClr were human melanocytes; endogenous in cells; host or cells: human melanocytes
Kind of assay: Melanogenesis stimulation test: quantification of second messenger cAMP. In kind it is cell-based. The text has this: Test: Study of the quantification of a second messenger: cAMP
When an agonist binds to this receptor, it leads to activation of a molecule, adenylate cyclase, which produces cAMP. Quantifying cAMP makes it possible to evaluate the affinity of a ligand for its receptor.
Protocol: The cells used to test MClr were human melanocytes.
EC50 is the ligand concentration giving 50% of maximum stimulation.

Non-standard residues stand in square brackets, D forms with d. Residues, ends and D or L forms follow the SMILES beside them. *: point of attachment. Palmitoyl = CCCCCCCCCCCCCCCC(=O)*; Nle = CCCC[C@H](N)C(=O)O

T1 sequence (Q01726 whole entry): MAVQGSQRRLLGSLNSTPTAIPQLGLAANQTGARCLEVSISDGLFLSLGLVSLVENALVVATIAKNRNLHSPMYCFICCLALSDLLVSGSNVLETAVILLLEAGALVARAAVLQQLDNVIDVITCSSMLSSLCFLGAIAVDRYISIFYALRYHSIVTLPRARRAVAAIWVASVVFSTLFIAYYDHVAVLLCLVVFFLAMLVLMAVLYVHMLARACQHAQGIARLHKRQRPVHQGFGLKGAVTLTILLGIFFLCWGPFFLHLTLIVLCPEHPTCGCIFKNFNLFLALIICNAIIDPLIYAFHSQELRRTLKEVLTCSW

The EC50 is the concentration needed to bring the measured effect to its halfway point. A low value points to an effect from little substance. `CCCC[C@H](NC(C)=O)C(=O)N[C@@H](C)C(=O)N[C@@H](CCCNC(=N)N)C(=O)N[C@H](Cc1ccccc1)C(=O)N[C@@H](CCCNC(=N)N)C(=O)N[C@@H](Cc1c[nH]c2ccccc12)C(N)=O` [Conjugate no. 2, Ac-Nle-Ala-Arg-DPhe-Arg-Trp-NH2] (Ac-[Nle]AR[dF]RW-NH2) gave an EC50 of 0.6 nM.
Next, `CCCCCCCCCCCCCCCC(=O)N[C@@H](CCCC)C(=O)N[C@@H](C)C(=O)N[C@@H](Cc1c[nH]cn1)C(=O)N[C@H](Cc1ccccc1)C(=O)N[C@@H](CCCNC(=N)N)C(=O)N[C@@H](Cc1c[nH]c2ccccc12)C(N)=O` [Conjugate no. 13, Palm-Nle-Ala-His-DPhe-Arg-Trp-NH2] (Palmitoyl-[Nle]AH[dF]RW-NH2): 1.6 nM.

The values are drawn from patent US7785577B2, “Peptides or peptidic conjugate derivatives of MSH and the use thereof for cosmetically fighting against canities” (Institut Europeen de Biologie Cellulaiare, priority 2004, dated 2010).
